# From ChEMBL document CHEMBL5365529, “Construction and Evaluation of Novel Dual-function Antifungal Inhibitors and Covalent Organic Framework Carriers Based on the Infection Microenvironment” (J Med Chem, 2023)
# pIC50, pKd: −log10 of the molar value. Activity calls are given as the source filed them. The rule behind the calls is not given here.
# Experiments:
# [1] = test system: Nakaseomyces glabratus; assay: Antifungal activity against Candida glabrata assessed as fungal growth inhibition incubated for 72 hrs by CLSI based susceptibility test; type: functional
# [2] = test system: Candida albicans; assay: Antifungal activity against Candida albicans SC5314 assessed as fungal growth inhibition incubated for 72 hrs by CLSI based susceptibility test; type: functional
# [3] = test system: Aspergillus fumigatus; assay: Antifungal activity against Aspergillus fumigatus KM8001 assessed as fungal growth inhibition incubated for 72 hrs by CLSI based susceptibility test; type: functional
# [4] = test system: Candida tropicalis; assay: Antifungal activity against Candida tropicalis ATCC 1369 assessed as fungal growth inhibition incubated for 72 hrs by CLSI based susceptibility test; type: functional
# [5] = test system: Cryptococcus neoformans; assay: Antifungal activity against Cryptococcus neoformans ZKCC 2209 assessed as fungal growth inhibition incubated for 72 hrs by CLSI based susceptibility test; type: functional
# [6] = test system: Candida albicans; assay: Antifungal activity against FLC-resistant Candida albicans 901 assessed as fungal growth inhibition incubated for 72 hrs by CLSI based susceptibility test; type: functional
# [7] = test system: Candida albicans; assay: Antifungal activity against FLC-resistant Candida albicans 904 assessed as fungal growth inhibition incubated for 72 hrs by CLSI based susceptibility test; type: functional
# [8] = test system: Candida albicans; assay: Antifungal activity against FLC-resistant Candida albicans CaR assessed as fungal growth inhibition incubated for 72 hrs by CLSI based susceptibility test; type: functional
# [9] = test system: Candida albicans; assay: Antifungal activity against FLC-resistant Candida albicans 17# assessed as fungal growth inhibition incubated for 72 hrs by CLSI based susceptibility test; type: functional
# [10] = test system: Candida albicans; assay: Antifungal activity against FLC-resistant Candida albicans 632 assessed as fungal growth inhibition incubated for 72 hrs by CLSI based susceptibility test; type: functional
# [11] = target: T1, Lanosterol 14-alpha demethylase (Candida albicans (strain SC5314 / ATCC MYA-2876) (Yeast), UniProt P10613); assay: Inhibition of CYP51 in Candida albicans SC5314 assessed as unknown sterol level at 4 ug/ml incubated for 16 hrs by GC-MS analysis (reference value: 5.35 %); set-up: scale not given: the % may be the effect or the level left; conditions: at 4 µg/mL
# T1 sequence (P10613 whole entry): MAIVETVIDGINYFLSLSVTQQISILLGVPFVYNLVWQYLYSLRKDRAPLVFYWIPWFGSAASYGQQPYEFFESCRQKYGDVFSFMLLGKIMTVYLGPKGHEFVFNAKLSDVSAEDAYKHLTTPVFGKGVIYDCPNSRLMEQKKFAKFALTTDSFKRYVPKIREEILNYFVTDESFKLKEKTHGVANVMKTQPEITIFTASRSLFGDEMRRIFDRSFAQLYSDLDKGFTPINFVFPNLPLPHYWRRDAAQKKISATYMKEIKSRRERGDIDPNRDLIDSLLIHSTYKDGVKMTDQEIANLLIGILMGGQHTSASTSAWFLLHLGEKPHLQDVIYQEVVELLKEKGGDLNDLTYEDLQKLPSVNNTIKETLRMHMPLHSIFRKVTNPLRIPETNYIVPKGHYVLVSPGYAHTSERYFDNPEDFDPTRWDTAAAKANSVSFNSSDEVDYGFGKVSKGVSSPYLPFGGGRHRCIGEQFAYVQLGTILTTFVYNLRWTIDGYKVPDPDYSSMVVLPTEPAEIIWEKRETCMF
# [12] = target: T1, Lanosterol 14-alpha demethylase; assay: Inhibition of CYP51 in Candida albicans SC5314 using lanosterol as substrate incubated for 60 mins by HPLC analysis
# [13] = target: T2, Programmed cell death 1 ligand 1 (Homo sapiens, UniProt Q9NZQ7); assay: Inhibition of human PD-L1 incubated for 15 mins by ELISA method
# T2 sequence (Q9NZQ7 whole entry): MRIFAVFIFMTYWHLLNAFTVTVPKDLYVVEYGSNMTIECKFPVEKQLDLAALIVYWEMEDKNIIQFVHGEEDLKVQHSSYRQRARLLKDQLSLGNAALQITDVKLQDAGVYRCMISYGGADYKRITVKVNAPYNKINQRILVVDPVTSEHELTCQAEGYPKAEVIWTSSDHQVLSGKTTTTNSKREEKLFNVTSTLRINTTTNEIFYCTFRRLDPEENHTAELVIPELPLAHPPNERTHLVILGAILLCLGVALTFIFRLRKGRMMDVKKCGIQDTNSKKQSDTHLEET
# [14] = test system: Candida albicans; assay: Induction of mitochondrial membrane depolarization in Candida albicans SC5314 by JC-1 staining based flow cytometry (reference value: 12.51 %); type: functional
# [15] = target: T2, Programmed cell death 1 ligand 1; assay: Binding affinity to PD-L1 (unknown origin) immobilized on carboxy chip assessed as dissociation constant by SPR analysis
# [16] = test system: Candida albicans; assay: Induction of apoptosis in Candida albicans SC5314 assessed as increase in ROS level at 1 uM/ml incubated for 48 hrs by fluorescence microscopy; type: functional, organism-based
# [17] = test system: Candida albicans; assay: Induction of apoptosis in Candida albicans SC5314 assessed as apoptotic cells incubated for 48 hrs by annexin V-FITC/PI staining based flow cytometry (reference value: 2.12 %); type: functional
# [18] = target: T1, Lanosterol 14-alpha demethylase; assay: Inhibition of CYP51 in Candida albicans SC5314 assessed as ergosterol level at 4 ug/ml incubated for 16 hrs by GC-MS analysis (reference value: 92.07 %); set-up: scale not given: the % may be the effect or the level left; conditions: at 4 µg/mL
# [19] = test system: Candida albicans; assay: Induction of apoptosis in Candida albicans SC5314 assessed as necrotic cells incubated for 48 hrs by annexin V-FITC/PI staining based flow cytometry (reference value: 2.12 %); type: functional
# [20] = target: T1, Lanosterol 14-alpha demethylase; assay: Inhibition of CYP51 in Candida albicans SC5314 assessed as lanosterol level at 4 ug/ml incubated for 16 hrs by GC-MS analysis relative to control; set-up: scale not given: the % may be the effect or the level left; conditions: at 4 µg/mL
# [21] = test system: Candida albicans; assay: Antifungal activity against Candida albicans 901 infected in BALB/c mouse assessed as inhibition of fungal proliferation at 0.5 ug/g administered 6 times measured after 4 days in presence of Ketoconazole by Masson staining based analysis; type: functional, organism-based; conditions: dose 0.5 µg/g, time 4.0 day
# [22] = Toxicity in BALB/c mouse infected with Candida albicans 901 assessed as pathological change in kidney at 0.5 ug/g administered 6 times measured after 4 days in presence of Ketoconazole by H and E staining based analysis; type: tissue-based; conditions: in vivo, 96 h, dose 0.5 µg/g, time 4 day
# [23] = Toxicity in BALB/c mouse infected with Candida albicans 901 assessed as pathological change in heart at 0.5 ug/g administered 6 times measured after 4 days in presence of Ketoconazole by H and E staining based analysis; type: tissue-based; conditions: in vivo, 96 h, dose 0.5 µg/g, time 4 day
# [24] = test system: Candida albicans; assay: Antifungal activity against Candida albicans 901 infected in BALB/c mouse assessed as decrease in collagen fiber content at 0.5 ug/g administered 6 times measured after 4 days in presence of Ketoconazole by Masson staining based analysis; type: functional, organism-based; conditions: dose 0.5 µg/g, time 4.0 day
# [25] = test system: Candida albicans; assay: Induction of immunity in BALB/c mouse infected with Candida albicans 901 assessed as decrease in PD-L1 level at 0.5 ug/g administered 6 times measured after 4 days in presence of Ketoconazole by IHC analysis; type: functional, organism-based; conditions: dose 0.5 µg/g, time 4.0 day
# [26] = Toxicity in BALB/c mouse infected with Candida albicans 901 assessed as pathological change in spleen at 0.5 ug/g administered 6 times measured after 4 days in presence of Ketoconazole by H and E staining based analysis; type: tissue-based; conditions: in vivo, 96 h, dose 0.5 µg/g, time 4 day
# [27] = Toxicity in BALB/c mouse infected with Candida albicans 901 assessed as pathological change in liver at 0.5 ug/g administered 6 times measured after 4 days in presence of Ketoconazole by H and E staining based analysis; type: tissue-based; conditions: in vivo, 96 h, dose 0.5 µg/g, time 4 day
# [28] = test system: Candida albicans; assay: Induction of immunity in BALB/c mouse infected with Candida albicans 901 assessed as decrease in PD-L1 level at 0.5 ug/g administered 6 times measured after 4 days in presence of Ketoconazole by Western blot analysis; type: functional, organism-based; conditions: dose 0.5 µg/g, time 4.0 day
# [29] = test system: Candida albicans; assay: Antifungal activity against Candida albicans 901 infected in BALB/c mouse assessed as inhibition of fungal proliferation at 0.5 ug/g administered 6 times measured after 4 days in presence of Ketoconazole by GMS staining based analysis; type: functional, organism-based; conditions: dose 0.5 µg/g, time 4.0 day
# [30] = test system: Candida albicans; assay: Antifungal activity against Candida albicans 901 infected in BALB/c mouse assessed as decrease in collagen fiber content at 0.5 ug/g administered 6 times measured after 4 days in presence of Ketoconazole by GMS staining based analysis; type: functional, organism-based; conditions: dose 0.5 µg/g, time 4.0 day
# [31] = Toxicity in BALB/c mouse infected with Candida albicans 901 assessed as pathological change in lung at 0.5 ug/g administered 6 times measured after 4 days in presence of Ketoconazole by H and E staining based analysis; type: tissue-based; conditions: in vivo, 96 h, dose 0.5 µg/g, time 4 day
# [32] = test system: Candida albicans; assay: Antifungal activity against Candida albicans 901 infected in BALB/c mouse assessed as repair of tissue damage at 0.5 ug/g administered 6 times measured after 4 days in presence of Ketoconazole by Masson staining based analysis; type: functional, organism-based; conditions: dose 0.5 µg/g, time 4.0 day
# [33] = test system: Candida albicans; assay: Antifungal activity against Candida albicans 901 infected in BALB/c mouse assessed as repair of tissue damage at 0.5 ug/g administered 6 times measured after 4 days in presence of Ketoconazole by GMS staining based analysis; type: functional, organism-based; conditions: dose 0.5 µg/g, time 4.0 day
SMILES,MIC50 [1],MIC50 [2],MIC50 [3],MIC50 [4],MIC50 [5],other results
CCOC(=O)[C@@H](Cn1ccnc1)NCc1cccc(OCc2cccc(-c3ccccc3)c2C)c1,1 µg/mL,0.5 µg/mL,4 µg/mL,0.5 µg/mL,1 µg/mL,–
OC(Cn1cncn1)(Cn1cncn1)c1ccc(F)cc1F [FLUCONAZOLE],0.25 µg/mL,0.5 µg/mL,> 8 µg/mL,0.5 µg/mL,1 µg/mL,MIC50 [6]: ≥ 8 µg/mL; MIC50 [7]: ≥ 8 µg/mL; MIC50 [8]: ≥ 8 µg/mL; MIC50 [9]: ≥ 8 µg/mL; MIC50 [10]: ≥ 8 µg/mL
COC(=O)[C@@H](Cn1ccnc1)NC(=O)C1CCCN(C(=O)c2cccc(-c3ccccc3)c2)C1 (some centres undefined),0.5 µg/mL,1 µg/mL,> 8 µg/mL,2 µg/mL,4 µg/mL,–
Cc1c(CN2CCCC(C(=O)N[C@H](Cn3cncn3)C(=O)OC(C)C)C2)cccc1-c1ccccc1 (some centres undefined),0.5 µg/mL,0.125 µg/mL,2 µg/mL,0.25 µg/mL,1 µg/mL,Activity [11]: 4.19%; pIC50 [12]: 6.49; MIC50 [6]: ≥ 8 µg/mL; MIC50 [7]: 4 µg/mL; pIC50 [13]: 7.46; Activity [14]: 34.74%; pKd [15]: 7.82; Activity [16]: Active; MIC50 [8]: 4 µg/mL; Activity [17]: 25.91%; Activity [18]: 14.71%; Activity [19]: 25.91%; MIC50 [9]: 4 µg/mL; MIC50 [10]: 2 µg/mL; Activity [20]: 11.25%
CC(C)OC(=O)[C@@H](Cn1ccnc1)NC(=O)C1CCCN(C(=O)c2cccc(-c3ccccc3)c2)C1 (some centres undefined),0.25 µg/mL,0.25 µg/mL,2 µg/mL,0.5 µg/mL,0.5 µg/mL,Activity [11]: 4.96%; pIC50 [12]: 6.39; MIC50 [6]: 4 µg/mL; MIC50 [7]: ≥ 8 µg/mL; pIC50 [13]: 7.20; Activity [14]: 34.74%; pKd [15]: 7.82; Activity [16]: Active; MIC50 [8]: 2 µg/mL; Activity [17]: 25.91%; Activity [18]: 16.08%; Activity [19]: 25.91%; MIC50 [9]: ≥ 8 µg/mL; MIC50 [10]: 4 µg/mL; Activity [20]: 12.71%
CCOC(=O)[C@@H](Cn1ccnc1)NC(=O)C1CCCN(Cc2cccc(-c3ccccc3)c2C)C1 (some centres undefined),0.5 µg/mL,0.25 µg/mL,> 8 µg/mL,0.25 µg/mL,1 µg/mL,–
CCOC(=O)[C@@H](Cn1ccnc1)NC(=O)C1CCCN(C(=O)c2cccc(-c3ccccc3)c2)C1 (some centres undefined),1 µg/mL,0.5 µg/mL,4 µg/mL,0.5 µg/mL,1 µg/mL,–
O=C(O)[C@@H](CO)NCc1cc(Cl)c(OCc2cccc(-c3ccccc3)c2Br)cc1OCc1cccnc1,–,–,–,–,–,inhibition [21]: Active; Activity [22]: Non-Toxic; Activity [23]: Non-Toxic; pIC50 [13]: 7.66; Activity [24]: Active; Activity [25]: Active; Activity [26]: Non-Toxic; Activity [27]: Non-Toxic; Activity [28]: Active; inhibition [29]: Active; Activity [30]: Active; Activity [31]: Non-Toxic; Activity [32]: Active; Activity [33]: Active
COC(=O)[C@@H](Cn1ccnc1)NCc1cccc(OCc2cccc(-c3ccccc3)c2C)c1,1 µg/mL,0.5 µg/mL,> 8 µg/mL,2 µg/mL,1 µg/mL,–
Cc1c(CN2CCCC(C(=O)N[C@H](Cn3ccnc3)C(=O)OC(C)C)C2)cccc1-c1ccccc1 (some centres undefined),0.5 µg/mL,0.5 µg/mL,> 8 µg/mL,1 µg/mL,1 µg/mL,–
Cc1c(COc2cccc(CN[C@H](Cn3ccnc3)C(=O)OC(C)C)c2)cccc1-c1ccccc1,0.5 µg/mL,0.25 µg/mL,4 µg/mL,0.5 µg/mL,2 µg/mL,–
COC(=O)[C@@H](Cn1cncn1)NC(=O)C1CCCN(C(=O)c2cccc(-c3ccccc3)c2)C1 (some centres undefined),0.5 µg/mL,0.5 µg/mL,8 µg/mL,1 µg/mL,1 µg/mL,–
CCOC(=O)[C@@H](Cn1cncn1)NC(=O)C1CCCN(C(=O)c2cccc(-c3ccccc3)c2)C1 (some centres undefined),0.5 µg/mL,0.25 µg/mL,> 8 µg/mL,0.5 µg/mL,2 µg/mL,–
CC(C)OC(=O)[C@@H](Cn1cncn1)NC(=O)C1CCCN(C(=O)c2cccc(-c3ccccc3)c2)C1 (some centres undefined),1 µg/mL,0.5 µg/mL,4 µg/mL,1 µg/mL,2 µg/mL,–
COC(=O)[C@@H](Cn1cncn1)NC(=O)C1CCCN(Cc2cccc(-c3ccccc3)c2C)C1 (some centres undefined),2 µg/mL,0.5 µg/mL,4 µg/mL,1 µg/mL,2 µg/mL,–
CCOC(=O)[C@@H](Cn1cncn1)NC(=O)C1CCCN(Cc2cccc(-c3ccccc3)c2C)C1 (some centres undefined),0.5 µg/mL,0.25 µg/mL,> 8 µg/mL,0.5 µg/mL,2 µg/mL,–
CCOC(=O)[C@@H](Cn1cncn1)NCc1cccc(OCc2cccc(-c3ccccc3)c2C)c1,0.25 µg/mL,1 µg/mL,4 µg/mL,1 µg/mL,2 µg/mL,–
COC(=O)[C@@H](Cn1ccnc1)NC(=O)C1CCCN(Cc2cccc(-c3ccccc3)c2C)C1 (some centres undefined),2 µg/mL,0.5 µg/mL,4 µg/mL,1 µg/mL,0.5 µg/mL,–
Cc1c(COc2cccc(CN[C@H](Cn3cncn3)C(=O)OC(C)C)c2)cccc1-c1ccccc1,0.25 µg/mL,2 µg/mL,8 µg/mL,2 µg/mL,2 µg/mL,–
